In patent US20230338316A1, “ABBAPOLINS AS INHIBITORS AND DEGRADERS OF POLO-LIKE KINASES” (UNIVERSITY OF SOUTH CAROLINA, priority 2022, published 2023):

Assays:
[1] = test system: PC3 prostate cancer cells; experiment: MTT cell viability assay, PC3; type: cell-based; conditions: for IC50: MTT
Method: PC3 prostate cancer cells were maintained in DMEM (Invitrogen™, Carlsebad, CA) supplemented with 10% FBS or Corning® Nu-serum™(BD™ Biosciences, Franklin Lakes, NJ) and 1% penicillin/streptomycin (Invitrogen™) in a humidified incubator and 5% CO2 at 37° C.
Exponentially growing cells were plated in 96-well dishes. Dose response curves were used to treat cells for 72 hours with inhibitors. Following the three-day treatment, cell viability was measured using the MTT (3-(4,5-dimethylthiazol-2-yl)-2,5-diphenyltetrazolium bromide) colorimetric assay. Cells were incubated for 3 hours with MTT allowing viable cells to metabolize the tetrazolium dye to a purple colored solution. Absorbance measurements (595 nm) were quantified using a DTX 880 plate reader and IC50 values were generated for FLIPs.

[2] = target: T1, PLK1 PBD (367-603) (Homo sapiens, UniProt P53350); experiment: Fluorescence polarization assay, PLK1 PBD; type: binding; conditions: for IC50: fluorescence polarization, read-out: PLK1 PBD IC50
T1 construct: PLK1 PBD (367-603) and PLK3 PBD (335-646) proteins were obtained from BPS Biosciences Inc; purchased BPS Biosciences Inc. (San Diego, CA)
Method: (§1) Materials were dissolved in DMSO (10 mM) and diluted from 10 nM to 600 μM (maximum of 6% DMSO tolerance in the assay). PLK1 PBD (367-603) and PLK3 PBD (335-646) proteins were obtained from BPS Biosciences Inc. (San Diego, CA); 17 ng PLK1 and 156 ng PLK3 were used per reaction. The fluorescein-tracer phospho-peptides (MAGPMQS[pT]PLNGAKK (SEQ ID NO: 1) for PLK1, and GPLATS[pT]PKNG (SEQ ID NO: 2) for PLK3) were used at a final concentration of 10 nM. Incubation was carried out at room temperature for 45 minutes. Fluorescence was measured using a DTX 880 plate reader and Multimode Analysis software (Beckman Coulter, Brea, CA). The polarization values in millipolarization (mP) units were measured at an excitation wavelength of 488 nm and an emission wavelength of 535 nm. Each data point was performed in triplicate for every experiment, and experiments were performed at least three times. An IC50 value for each compound was calculated from linear regression analysis of the plots.

[3] = target: T2, PLK3 PBD (335-646) (Homo sapiens, UniProt Q9H4B4); experiment: Fluorescence polarization assay, PLK3 PBD; type: binding
T2 construct: PLK1 PBD (367-603) and PLK3 PBD (335-646) proteins were obtained from BPS Biosciences Inc; purchased BPS Biosciences Inc. (San Diego, CA)
T2 sequence (Q9H4B4 335-646): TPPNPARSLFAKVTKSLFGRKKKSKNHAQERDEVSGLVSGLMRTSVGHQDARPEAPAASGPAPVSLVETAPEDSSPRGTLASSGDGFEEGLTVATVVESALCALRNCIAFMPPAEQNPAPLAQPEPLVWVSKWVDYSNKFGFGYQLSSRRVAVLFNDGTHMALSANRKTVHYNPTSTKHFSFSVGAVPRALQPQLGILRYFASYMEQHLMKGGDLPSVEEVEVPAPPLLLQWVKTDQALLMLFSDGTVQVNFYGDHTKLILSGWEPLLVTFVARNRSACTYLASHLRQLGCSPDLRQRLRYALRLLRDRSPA
Method: as §1

T1 sequence (P53350 367-603): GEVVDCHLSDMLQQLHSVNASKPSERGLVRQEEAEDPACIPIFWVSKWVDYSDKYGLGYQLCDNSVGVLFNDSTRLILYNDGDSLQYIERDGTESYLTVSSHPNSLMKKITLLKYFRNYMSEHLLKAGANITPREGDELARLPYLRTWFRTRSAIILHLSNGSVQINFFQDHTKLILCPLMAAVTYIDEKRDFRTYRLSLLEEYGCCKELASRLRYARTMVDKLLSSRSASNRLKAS

| SMILES | PC3 % inhi. ([1]; at 100 μM) | IC50 [2] | IC50 ([1]; 72 h) | PLK1 PBD % inhi. ([2]; at 400 μM) | IC50 ([1]; 72 hours) | IC50 [3] |
| --- | --- | --- | --- | --- | --- | --- |
| CCCCCCCCc1ccc(C(=O)Nc2cccc(P(=O)(O)O)c2)cc1 [compound 6287] | 50% inhi. at | 80.8 µM |  |  |  |  |
| CCCCCCCCN(C)c1ccc(C(=O)Nc2cc(C)ccc2C(=O)O)cc1 [compound 6171] |  | > 600 µM | 27.3 µM |  |  |  |
| CCCCCCCCc1ccc(C(=O)Nc2ccc(C)cc2C(=O)O)cc1C [compound 6282] |  | 21 µM |  |  |  |  |
| Cc1ccc(C(=O)O)c(NC(=O)c2ccc(N)cc2)c1 [compound 6154] |  | > 600 µM | > 120 µM |  |  |  |
| CCCCCCNC(=O)c1ccc(C(=O)Nc2ccc(C)cc2C(=O)O)cc1 [compound 6189] |  |  |  | 37% inhi. at |  |  |
| CCCCCCCCc1ccc(C(=O)Nc2cccc(CP(=O)(O)O)c2)cc1 [compound 6195] |  | 51.5 µM | 20.4 ± 4.4 µM |  |  |  |
| CCCCCCCCN(C)c1ccc(C(=O)Nc2ccc(C)cc2C(=O)O)cc1 [compound 6172] |  | > 600 µM | 28 µM |  |  |  |
| CCCCCCCCc1ccc(C(=O)Nc2ccc(C)cc2C(=O)O)cc1OC [compound 6280] |  | > 100 µM | 25.9 µM |  | 18.3 µM | > 200 µM |
| Cc1ccc(NC(=O)c2ccc(N)cc2)c(C(=O)O)c1 [compound 6153] |  | > 600 µM | > 120 µM |  |  | > 600 µM |
